Source: patent publication US20100069499A1 (priority 2007, published 2010)

Assays:
Fusarium culmorum = test: Test of preventive effect on wheat Fusarium blight; assay type: in vivo; conditions: wheat (Shirogane), foliage application 500 ppm, 4 days darkness and high humidity at 23° C. then 3 days lighting
Method: (§1) The controlling effect was evaluated by visually observing the area or a lesion spots on each of test plants at the time of investigation and comparing the area of lesion spots on a plant treated with the compound of the present invention with that on an untreated plant.
Each of plastic pots was filled with sandy loam and sown with wheat (cultivar; Shirogane), followed by growing in a greenhouse for 10 days. The compound 1 of the present invention was formulated into a flowable formulation according to Formulation Example 6. The flowable formulation was diluted to a predetermined concentration (500 ppm) with water, and foliage application of the dilution was carried out so that the dilution adhered sufficiently to the surfaces of leaves of the grown wheat young seedling. After the foliage application, the plant was air-dried and then inoculated by spraying a water suspension of spores of Fusarium culmorum. After the inoculation, the plant was held under darkness and high humidity conditions at 23° C. for 4 days and held under lighting conditions for 3 days, and then the area of lesion spots was investigated.

Sclerotinia sclerotiorum = test: Test of preventive effect on cucumber stem rot; assay type: in vivo; conditions: cucumber (Sagamihanjiro), foliage application 500 ppm, 4 days at 18° C. and high humidity
Method: as §1
Each of plastic pots was filled with sandy loam and sown with cucumber (variety; Sagamihanjiro), followed by growing in a greenhouse for 12 days. The compound 2 of the present invention was formulated into a flowable formulation according to Formulation Example 6. The flowable formulation was diluted to a predetermined concentration (500 ppm) with water, and foliage application of the dilution was carried out so that the dilution adhered sufficiently to the surfaces of leaves of the grown cucumber young seedling. After the foliage application, the plant was air-dried and a PDA medium containing mycelia of Sclerotinia sclerotiorum was placed on the surfaces of the cucumber leaves. After the inoculation, the plant was grown at 18° C. and high humidity for 4 days. Then, the area of lesion spots was investigated.

| SMILES | area of lesion spots on the treated plant relative to that on an untreated plant (Fusarium culmorum) | area of lesion spots on the treated plant relative to that on an untreated plant (Sclerotinia sclerotiorum) |
| --- | --- | --- |
| C#CCOc1c(F)cc(C(=O)NCC2CCCCC2)cc1Cl [compound 1, N-(cyclohexylmethyl)-3-chloro-5-fluoro-4-(2-propynyloxy)benzamide] | ≤ 30% | – |
| C#CCOc1c(F)cc(C(=O)NC2CCCCC2C)cc1Cl (centres unmarked) [compound 2, N-(2-methylcyclohexyl)-3-chloro-5-fluoro-4-(2-propynyloxy)benzamide] | – | ≤ 30% |
